Converted amounts (≈) assume the structure as drawn. Where two headings read alike, the source gives them in different places.
What was measured:
[1] = test system: Staphylococcus epidermidis (ATCC 12228); experiment: Antibacterial broth microdilution (MIC/MBC), S. epidermidis; type: cell-based; settings: ATCC12228
Protocol: (§1) In addition, the isolates were also evaluated for their antibacterial activity towards three strains including Bacillus cereus (ATCC 11778), Staphylococcus aureus (ATCC 6538) and Staphylococcus epidermidis (ATCC 12228) using penicillin G and gentamicin as the antibiotic controls (Table 5). […] Finally, the inhibitory activity of aromatase by using a CYP19 screening kit was investigated. The aromatase (also called estrogen synthase) is responsible for converting the non-aromatic ring A of androgens to estrogens, which are related to the proliferation of breast cancer cells.
(§2) The tested strains, Staphylococcus aureus (S. aureus) ATCC6538, Staphylococcus epidermidis (S. epidermidis) ATCC12228, and Bacillus cereus (B. cereus) ATCC11778 were obtained from the American Type Culture Collection (ATCC).
(§3) All tested species were grown on Mueller Hinton Agar (MHA) and incubated at 37 °C for 18–24 h. The bacterial colonies suspension in sterile normal saline was diluted until they reached a 1 × 10^6 CFC/mL concentration, which was then compared to the McFarland scale. This step provided a standard bacterial suspension (1 × 10^6 CFU/mL), which was used for the following assays.
(§4) The broth microdilution technique was used for the MIC and MBC determination, which was expressed according to Clinical and Laboratory Standards Institute (CLSI) standard M07 guideline. The compounds were prepared as a stock solution by dissolving in dimethyl sulfoxide (DMSO) with the concentration ranging from 0.195 to 200 µg/mL. DMSO and penicillin G or gentamicin were used as normal and standard drug control. […] Three replicates were performed for each experiment.

aromatase (CYP19) = target: T1, aromatase (CYP19) (Homo sapiens, UniProt P11511); experiment: Aromatase (CYP19) inhibition assay; type: biochemical; settings: for inhibition at 12.5 µM: at a concentration of 12.5 µM; for Aromatase inhibitory activity (in words): at the concentration up to 12.15 µM
T1 construct: purchased
T1 sequence (P11511 1-503): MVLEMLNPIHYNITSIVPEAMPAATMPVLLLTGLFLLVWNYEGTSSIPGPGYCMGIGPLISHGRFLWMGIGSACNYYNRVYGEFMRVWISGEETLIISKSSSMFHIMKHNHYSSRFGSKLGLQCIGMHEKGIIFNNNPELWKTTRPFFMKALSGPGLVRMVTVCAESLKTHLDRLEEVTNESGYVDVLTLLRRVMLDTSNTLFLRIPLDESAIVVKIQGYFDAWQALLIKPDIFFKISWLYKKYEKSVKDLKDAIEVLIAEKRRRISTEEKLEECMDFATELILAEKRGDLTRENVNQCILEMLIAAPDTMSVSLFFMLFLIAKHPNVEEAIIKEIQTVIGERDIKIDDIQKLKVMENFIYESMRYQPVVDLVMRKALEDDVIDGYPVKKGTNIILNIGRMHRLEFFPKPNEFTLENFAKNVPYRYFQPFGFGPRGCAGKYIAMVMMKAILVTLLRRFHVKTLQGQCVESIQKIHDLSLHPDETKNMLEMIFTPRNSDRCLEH
Protocol: as §1
The aromatase assay used a method previously designed by Stresser and co-workers.

[2] = test system: HuCCA-1 (cholangiocarcinoma); experiment: Cytotoxicity, MTT assay, HuCCA-1; type: cell-based, human; settings: for IC50: Homo sapiens
Protocol: (§5) The in vitro cytotoxicity assay toward a panel of human cancer cell lines of several clerodane diterpenoids has been well investigated. Thus, the isolates in adequate amounts were tested against MOLT-3 (acute lymphoblastic leukemia), HuCCA-1 (cholangiocarcinoma), HepG2 (hepatocellular carcinoma), A549 (lung adenocarcinoma), HeLa (cervical carcinoma), and MDA-MB-231 (triple negative breast cancer) cancer cell lines using the MTT and XTT methods. Doxorubicin and etoposide were used as positive controls.
(§6) The MTT (3-(4,5-dimethylthiazol-2-yl)-2,5-diphenyltetrazolium bromide) assay was employed for the cytotoxic evaluation against five human cancer cell lines, including HepG2, A549, MDA-MB-231, HeLa, and HuCCA-1, while the XTT (2,3-bis-(2-methoxy-4-nitro-5-sulphenyl)-(2H)-tetrazolium-5-carboxanilide) method was used for MOLT-3 cancer cell.

[3] = test system: MOLT-3 (acute lymphoblastic leukemia); experiment: Cytotoxicity, XTT method, MOLT-3; type: cell-based; settings: Homo sapiens
Protocol: as §5, §6

[4] = test system: Bacillus cereus (ATCC 11778); experiment: Antibacterial broth microdilution (MIC/MBC), B. cereus; type: cell-based; settings: for MBC / MIC: Bacillus cereus, ATCC11778
Protocol: as §1, §2, §3, §4

[5] = test system: HeLa (cervical carcinoma); experiment: Cytotoxicity, MTT assay, HeLa; type: cell-based, human; settings: for IC50: Homo sapiens, HeLa, read-out: IC50, HeLa
Protocol: as §5, §6

[6] = test system: Staphylococcus aureus (ATCC 6538); experiment: Antibacterial broth microdilution (MIC/MBC), S. aureus; type: cell-based; settings: ATCC6538
Protocol: as §1, §2, §3, §4

[7] = test system: A549 (lung adenocarcinoma); experiment: Cytotoxicity, MTT assay, A549; type: cell-based, human; settings: mean ± s.d. (n = 3); for IC50: Homo sapiens, A549, A549 cell line
Protocol: as §5, §6

[8] = test system: HepG2 (hepatocellular carcinoma); experiment: Cytotoxicity, MTT assay, HepG2; type: cell-based, human; settings: for IC50: Homo sapiens
Protocol: as §5, §6

[9] = test system: MDA-MB-231 (triple negative breast cancer); experiment: Cytotoxicity, MTT assay, MDA-MB-231; type: cell-based, human
Protocol: as §5, §6

[10] = test system: MOLT-3, HuCCA-1, HepG2, A549, HeLa, and MDA-MB-231 cancer cell lines; experiment: Cytotoxicity toward panel of human cancer cell lines (MTT and XTT); type: cell-based; settings: for IC50: Homo sapiens, read-out: IC50 range over the cancer cell line panel
Description: The in vitro cytotoxicity assay toward a panel of human cancer cell lines of several clerodane diterpenoids has been well investigated. […] Doxorubicin and etoposide were used as positive controls.

[11] = HuCC-A1, HuCCA-1 cell line, MTT, mean ± s.d. (n = 3), read-out: IC50, HuCCA-1
[12] = MOLT-3 cell line, XTT, mean ± s.d. (n = 3), read-out: IC50, MOLT-3
[13] = HeLa cell line, MTT, mean ± s.d. (n = 3)
[14] = HepG2, HepG2 cell line, MTT, mean ± s.d. (n = 3), read-out: IC50, HepG2
[15] = Homo sapiens, MDA-MB-231, MDA-MB-231 cell line, MTT, mean ± s.d. (n = 3), read-out: IC50, MDA-MB-231
[16] = range over all cell lines tested
[17] = MDA-MB-231 cell line, MTT, mean ± s.d. (n = 3), read-out: IC50, MDA-MB-231

SMILES | MBC [1] | MIC [1] | inhibition at 12.5 µM (aromatase (CYP19)) | Aromatase inhibitory activity (in words) (aromatase (CYP19)) | IC50 [2, 11] | IC50 [3, 12] | MBC [4] | MIC [4] | IC50 [5, 13] | MBC [6] | MIC [6] | IC50 [7] | IC50 [8, 14] | IC50 [9, 15] | also measured
C=CC(=C)CC[C@]1(C)[C@H](C)C[C@H](OC)[C@@]23C(=C[C@H](OC(=O)[C@@H](C)CC)C[C@@H]12)[C@@H](OC)O[C@H]3OC(C)=O [Compound 11, balanspene F] | > 200 µg/mL | > 200 µg/mL | 25% | did not show activity | 3300 ± 400 nM | 5000 ± 1700 nM | 25 µg/mL (≈ 49.5 µM) | 12.5 µg/mL (≈ 24.8 µM) | 10300 ± 500 nM | > 200 µg/mL | > 200 µg/mL | 3000 ± 400 nM | 14300 ± 1500 nM | 11400 ± 500 nM | MBC, B. cereus (ATCC 11778) [4]: 25 µg/mL (≈ 49.5 µM)
C=CC(=C)CC[C@]1(C)[C@H]2C[C@H](OC(=O)CC(C)C)C=C3[C@H](OC(C)=O)O[C@H](OC(C)=O)[C@@]32[C@H](OC)C[C@@H]1C [Compound 9, caseargrewiin A] | > 200 µg/mL | > 200 µg/mL | 31% | did not show activity | 5200 ± 400 nM | 3000 ± 200 nM | 100 µg/mL (≈ 188 µM) | 100 µg/mL (≈ 188 µM) | 5200 ± 100 nM | > 200 µg/mL | > 200 µg/mL | 5000 ± 500 nM | 9500 ± 800 nM | 8100 ± 400 nM | 
COc1cc([C@@H]2OC[C@@H]3[C@H]2CO[C@H]3c2cc(OC)c(O)c(OC)c2)cc(OC)c1O [Compound 19, (−)-syringaresinol] | > 200 µg/mL | > 200 µg/mL | 17% | did not show activity |  | 75300 ± 4900 nM | > 200 µg/mL | > 200 µg/mL |  | > 200 µg/mL | > 200 µg/mL |  |  |  | Cytotoxicity against all cell lines (in words) ([10]; even at 50 µg/mL): inactive; IC50, HuCCA-1 ([2]; HuCCA-1 cell line, MTT, mean ± s.d. (n = 3)): I (Inactive for cytotoxicity with < 50% inhibition at a concentration of 50 µg/mL); IC50, HeLa [5, 13]: I (Inactive for cytotoxicity with < 50% inhibition at a concentration of 50 µg/mL); IC50, A549 ([7]; A549 cell line): I (Inactive for cytotoxicity with < 50% inhibition at a concentration of 50 µg/mL); IC50, HepG2 ([8]; HepG2 cell line, MTT, mean ± s.d. (n = 3)): I (Inactive for cytotoxicity with < 50% inhibition at a concentration of 50 µg/mL); IC50, MDA-MB-231 ([9]; MDA-MB-231 cell line, MTT, mean ± s.d. (n = 3)): I (Inactive for cytotoxicity with < 50% inhibition at a concentration of 50 µg/mL)
C=CC(=C)CC[C@]1(C)[C@H](C)[C@@H](OC(C)=O)[C@H](OC(C)=O)[C@@]23C(=C[C@H](OC(=O)CC(C)C)C[C@@H]12)[C@@H](OC(C)=O)O[C@H]3OC(C)=O [Compound 3, Grewiifopene C] | > 200 µg/mL | > 200 µg/mL | 15% | did not show activity | 3900 ± 200 nM | 2700 ± 300 nM | > 200 µg/mL | > 200 µg/mL | 5300 ± 100 nM | > 200 µg/mL | > 200 µg/mL | 5100 ± 1100 nM | 13200 ± 500 nM | 8400 ± 100 nM | 
C=CC(=C)CC[C@]1(C)[C@H](C)C[C@H](O)[C@@]23C(=C[C@H](OC(=O)[C@@H](C)CC)C[C@@H]12)[C@@H](OC(C)=O)O[C@H]3OC(C)=O [Compound 7, isocaseamembrin E] | > 200 µg/mL | 100 µg/mL (≈ 193 µM) | 0% | did not show activity | 700 ± 100 nM | 1400 ± 200 nM | > 200 µg/mL | 6.25 µg/mL (≈ 12.1 µM) | 900 ± 100 nM | 50 µg/mL (≈ 96.4 µM) | 25 µg/mL (≈ 48.2 µM) | 300 ± 20 nM | 1900 ± 400 nM | 2000 to 2200 nM | IC50 [10, 16]: 300 to 2900 nM; IC50 [9, 17]: 2000 ± 200 nM
C=CC(C)=CCC1(C)C(C)CC(O)C23C(=CC(OC(=O)C(C)CC)CC12)C(OC(C)=O)OC3OC(C)=O (stereo not shown) [Compound 16, Grewiifopene I] |  |  |  |  |  |  |  |  |  |  |  |  |  |  | IC50 [10]: 300 to 2900 nM; IC50 ([2]; HuCC-A1, read-out: IC50, HuCCA-1): 700 ± 20 nM; IC50 ([3]; MOLT-3, read-out: IC50, MOLT-3): 1200 ± 200 nM; IC50 [5]: 800 ± 100 nM; IC50 ([8]; HepG2, read-out: IC50, HepG2): 2900 nM; IC50 ([9]; Homo sapiens, MDA-MB-231, read-out: IC50, MDA-MB-231): 2000 ± 100 nM
C=CC(=C)CC[C@]1(C)[C@H](C)C[C@H](O)[C@@]23C(=C[C@H](OC(=O)CC(C)C)C[C@@H]12)[C@@H](OC(C)=O)O[C@H]3OC(C)=O [Compound 8, corymbulosin X] | > 200 µg/mL | > 200 µg/mL |  |  | 400 ± 100 nM | 1200 ± 200 nM | 50 µg/mL (≈ 96.4 µM) | 25 µg/mL (≈ 48.2 µM) | 1800 ± 200 nM | > 200 µg/mL | > 200 µg/mL | 600 ± 100 nM | 2400 ± 100 nM | 2000 to 2200 nM | IC50 [10, 16]: 300 to 2900 nM; IC50 [9, 17]: 2200 ± 100 nM

— paper PMC11401813, “Grewiifopenes A–K, bioactive clerodane diterpenoids from Casearia grewiifolia Vent” (Natural Products and Bioprospecting, 2024)
